# Where two headings read alike, the source gives them in different places.
# Key:
# Type in all cases: cell-based
# PfCRT^3D7 = PfCRT^3D7 (Plasmodium falciparum, UniProt Q8IBZ9); assay: cell-based
# How it was run: (§1)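 Oocytes (ten per treatment, ≥4 independent frogs/days) were preloaded by injecting VF-6 in 25 nL ND96 at pH 5.0, 5.5, 6.0 or 7.0, or Na^+-free choline buffer, then uptake run 1.5 h, 27.5 °C, ND96 pH 5.5 by default. Internal concentrations assumed ~400 nL oocyte volume.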
# PfCRT^Ecu1110 [1] = molecular target: T1, PfCRT^Ecu1110 (Plasmodium falciparum, UniProt Q9N623, A220S/I356L/K76T/N326D); assay: cell-based; conditions: […]
# How it was run: as §1
# PfNT1 = molecular target: T2, PfNT1 (Plasmodium falciparum, UniProt Q8IDM6); assay: cell-based; conditions: for activity at 5000 µM: total [3H]CQ transport
# T2 construct: expressed in transfected cells; host or cells: Xenopus laevis oocytes (stage V-VI), cRNA-injected
# How it was run: as §1
# PfCRT^Dd2 = PfCRT^Dd2 (Plasmodium falciparum, UniProt Q9N623, A220S/I356T/K76T/M74I/N326S/N75E/Q271E/R371I); assay: cell-based; conditions: […]; for activity at 45000 µM: [test solute]i = 45 mM (30 mM for some solutes due to solubility)
# How it was run: as §1
# PfCRT^Ecu1110 [2] = molecular target: T1, PfCRT^Ecu1110; assay: [3H]CQ uptake into Xenopus oocytes, cis-inhibition by unlabelled solute
# How it was run: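 Inward transport into oocyte cytosol from pH 5.5 medium models PfCRT efflux from the acidic digestive vacuole. Incubation 1.5 h, 27.5 °C; termination by ice-cold washes; lysate radioactivity counted.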
# [3] = read-out: PfCRT-mediated [3H]CQ transport, cis-inhibition (% PfCRTEcu1110 control)
# [4] = read-out: Uptake of [3H]CQ (% PfCRTDd2 control), cis-inhibition, PfCRTEcu1110, SEM
# [5] = read-out: Uptake of [3H]CQ (% PfCRTEcu1110 control), cis-inhibition
# Sequence of PfCRT^Dd2 (Q9N623 whole entry A220S/I356T/K76T/M74I/N326S/N75E/Q271E/R371I): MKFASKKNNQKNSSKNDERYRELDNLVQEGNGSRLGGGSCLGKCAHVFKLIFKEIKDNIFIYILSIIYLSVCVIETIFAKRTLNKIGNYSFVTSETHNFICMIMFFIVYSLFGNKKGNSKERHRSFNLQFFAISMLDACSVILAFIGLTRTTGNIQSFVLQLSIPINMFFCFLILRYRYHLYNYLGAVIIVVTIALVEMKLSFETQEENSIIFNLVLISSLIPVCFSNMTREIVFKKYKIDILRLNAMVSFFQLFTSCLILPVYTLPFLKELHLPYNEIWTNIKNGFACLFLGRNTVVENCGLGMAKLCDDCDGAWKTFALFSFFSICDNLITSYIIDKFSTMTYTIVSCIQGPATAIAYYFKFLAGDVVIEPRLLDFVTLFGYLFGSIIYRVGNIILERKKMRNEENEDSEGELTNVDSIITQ
# T1 sequence (Q9N623 whole entry A220S/I356L/K76T/N326D): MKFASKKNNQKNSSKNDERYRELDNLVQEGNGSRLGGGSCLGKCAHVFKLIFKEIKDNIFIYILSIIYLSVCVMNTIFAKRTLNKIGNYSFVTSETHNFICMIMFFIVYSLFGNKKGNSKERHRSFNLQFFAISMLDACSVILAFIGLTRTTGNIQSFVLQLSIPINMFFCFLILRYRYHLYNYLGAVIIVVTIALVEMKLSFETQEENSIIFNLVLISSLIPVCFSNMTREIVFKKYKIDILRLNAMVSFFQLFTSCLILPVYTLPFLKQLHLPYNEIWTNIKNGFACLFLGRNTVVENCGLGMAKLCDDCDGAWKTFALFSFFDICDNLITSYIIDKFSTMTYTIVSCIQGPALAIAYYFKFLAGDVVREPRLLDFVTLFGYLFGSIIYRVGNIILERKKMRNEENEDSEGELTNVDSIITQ
# T2 sequence (Q8IDM6 whole entry): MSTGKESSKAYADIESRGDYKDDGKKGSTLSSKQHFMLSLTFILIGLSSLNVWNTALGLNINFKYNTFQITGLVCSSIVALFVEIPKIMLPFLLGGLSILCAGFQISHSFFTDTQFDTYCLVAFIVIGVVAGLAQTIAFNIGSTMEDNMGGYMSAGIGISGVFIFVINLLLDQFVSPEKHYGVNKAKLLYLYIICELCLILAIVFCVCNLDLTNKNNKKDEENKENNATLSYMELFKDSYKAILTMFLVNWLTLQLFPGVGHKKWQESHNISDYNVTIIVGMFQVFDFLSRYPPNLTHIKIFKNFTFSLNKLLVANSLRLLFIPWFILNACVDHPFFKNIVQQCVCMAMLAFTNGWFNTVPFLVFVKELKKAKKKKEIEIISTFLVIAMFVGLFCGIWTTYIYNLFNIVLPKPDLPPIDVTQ
# Sequence of PfCRT^3D7 (Q8IBZ9 59-398): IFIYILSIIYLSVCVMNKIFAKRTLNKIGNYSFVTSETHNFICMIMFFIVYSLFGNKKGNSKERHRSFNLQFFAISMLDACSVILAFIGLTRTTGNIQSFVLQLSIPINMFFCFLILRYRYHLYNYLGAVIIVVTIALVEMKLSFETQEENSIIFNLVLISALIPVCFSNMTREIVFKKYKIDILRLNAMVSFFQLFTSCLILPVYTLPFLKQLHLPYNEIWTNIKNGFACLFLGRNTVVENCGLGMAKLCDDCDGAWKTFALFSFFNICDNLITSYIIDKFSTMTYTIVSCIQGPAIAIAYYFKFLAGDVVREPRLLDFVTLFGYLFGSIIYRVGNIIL
compound,measurement,setting,value
N=C(N)NCCC[C@H](N)C(=O)O [L-arginine],activity at 5000 µM,"PfCRT^3D7; PfCRT3D7 oocytes, [test solute]i = 5 mM, total [3H]CQ transport, normalised to the oocyte type control, read-out: Uptake of [3H]CQ (% PfCRT3D7 control), trans-stimulation",97 ± 2.2%
same,"[3H]CQ transport (% PfCRT3D7 control), trans-stimulation, PfCRT3D7",PfCRT^3D7; SEM,0.3 ± 0.02 % PfCRT3D7 control
same,activity at 5000 µM,"PfCRT^3D7; [test solute]i = 5 mM (intracellular), PfCRT3D7 oocytes, normalised to oocyte type control, read-out: PfCRT-mediated [3H]CQ transport, trans-stimulation (% PfCRT3D7 control)",96 ± 3.7%
same,activity at 45000 µM,"PfCRT^3D7; SEM, read-out: Uptake of [3H]CQ (% PfCRTDd2 control), trans-stimulation, PfCRT3D7",3.3 ± 0.02%
same,activity at 45000 µM,"PfCRT^3D7; read-out: PfCRT-mediated [3H]CQ transport, trans-stimulation (% PfCRT3D7 control)",96 ± 3.1%
same,activity at 45000 µM,"PfCRT^3D7; read-out: Uptake of [3H]CQ (% PfCRT3D7 control), trans-stimulation",98 ± 4.4%
same,activity at 5000 µM,"PfCRT^3D7; total [3H]CQ transport, [test solute]i = 5 mM (intracellular), mean ± SEM, SEM, read-out: Uptake of [3H]CQ (% PfCRTDd2 control), trans-stimulation, PfCRT3D7",3.3 ± 0.06%
same,activity at 5000 µM,"PfCRT^Ecu1110 [1]; pH 5.5, read-out: PfCRT-mediated [3H]CQ transport, trans-stimulation (% PfCRTEcu1110 control), [test solute]i = 5 mM (intracellular), PfCRTEcu1110 oocytes, normalised to oocyte type control",98 ± 4.1%
same,activity at 5000 µM,"PfCRT^Ecu1110 [1]; pH 5.5, read-out: Uptake of [3H]CQ (% PfCRTEcu1110 control), trans-stimulation, PfCRTEcu1110 oocytes, [test solute]i = 5 mM, total [3H]CQ transport, normalised to the oocyte type control",100 ± 3.7%
same,activity at 45000 µM,"PfCRT^Ecu1110 [1]; pH 5.5, read-out: Uptake of [3H]CQ (% PfCRTEcu1110 control), trans-stimulation, PfCRTEcu1110 oocytes, [test solute]i = 45 mM (30 mM for some solutes due to solubility), total [3H]CQ transport, normalised to the oocyte type control",99 ± 2.5%
same,activity at 5000 µM,"PfCRT^Ecu1110 [1]; read-out: Uptake of [3H]CQ (% PfCRTDd2 control), trans-stimulation, PfCRTEcu1110, total [3H]CQ transport, [test solute]i = 5 mM (intracellular), mean ± SEM, SEM",36 ± 2.1%
same,activity at 45000 µM,"PfCRT^Ecu1110 [1]; read-out: Uptake of [3H]CQ (% PfCRTDd2 control), trans-stimulation, PfCRTEcu1110, total [3H]CQ transport, [test solute]i = 45 mM (intracellular; 30 mM for some solutes due to solubility), mean ± SEM, SEM",35 ± 2.2%
same,activity at 5000 µM,"PfNT1; PfNT1 oocytes, [test solute]i = 5 mM, normalised to the oocyte type control, read-out: Uptake of [3H]CQ (% PfNT1 control), trans-stimulation",98 ± 3.8%
same,activity at 45000 µM,"PfNT1; SEM, read-out: Uptake of [3H]CQ (% PfCRTDd2 control), trans-stimulation, PfNT1",3.1 ± 0.07%
same,activity at 45000 µM,"PfNT1; read-out: Uptake of [3H]CQ (% PfNT1 control), trans-stimulation",98 ± 3.2%
same,activity at 5000 µM,"PfNT1; [test solute]i = 5 mM (intracellular), mean ± SEM, SEM, read-out: Uptake of [3H]CQ (% PfCRTDd2 control), trans-stimulation, PfNT1",3.3 ± 0.03%
same,activity at 5000 µM,"PfCRT^Dd2; pH 5.5, read-out: PfCRT-mediated [3H]CQ transport, trans-stimulation (% PfCRTDd2 control), [test solute]i = 5 mM (intracellular), PfCRTDd2 oocytes, normalised to oocyte type control",98 ± 2.1%
same,activity at 5000 µM,"PfCRT^Dd2; pH 5.5, read-out: Uptake of [3H]CQ (% PfCRTDd2 control), trans-stimulation, PfCRTDd2, total [3H]CQ transport, [test solute]i = 5 mM (intracellular), mean ± SEM, SEM",100 ± 3.5%
same,activity at 5000 µM,"PfCRT^Dd2; pH 5.5, read-out: Uptake of [3H]CQ (% PfCRTDd2 control), trans-stimulation, PfCRTDd2 oocytes, [test solute]i = 5 mM, total [3H]CQ transport, normalised to the oocyte type control",100 ± 3.5%
same,activity at 45000 µM,"PfCRT^Dd2; pH 5.5, read-out: Uptake of [3H]CQ (% PfCRTDd2 control), trans-stimulation, PfCRTDd2 oocytes, total [3H]CQ transport, normalised to the oocyte type control",97 ± 4.2%
same,activity at 5000 µM,"PfCRT^Dd2; pH 5.5, read-out: [3H]CQ transport (% PfCRTDd2 control), trans-stimulation, PfCRTDd2, trans-stimulation, [test solute]i = 5 mM (injected), PfCRT-mediated component (background subtracted), mean ± SEM, SEM",98 ± 2.1%
same,activity at 45000 µM,"PfCRT^Dd2; pH 5.5, read-out: [3H]CQ transport (% PfCRTDd2 control), trans-stimulation, PfCRTDd2, trans-stimulation, PfCRT-mediated component (background subtracted), mean ± SEM, SEM",95 ± 2.5%
same,inhibition at 500 µM,PfCRT^Ecu1110 [2]; [3],98 ± 2.5%
same,inhibition at 1000 µM,PfCRT^Ecu1110 [2]; [3],95 ± 3.5%
same,inhibition at 2000 µM,PfCRT^Ecu1110 [2]; [3],99 ± 1.6%
same,inhibition at 500 µM,PfCRT^Ecu1110 [2]; [4],33 ± 2.4%
same,inhibition at 1000 µM,PfCRT^Ecu1110 [2]; [4],32 ± 1%
same,inhibition at 2000 µM,PfCRT^Ecu1110 [2]; [4],33 ± 1.4%
same,inhibition at 500 µM,PfCRT^Ecu1110 [2]; [5],100 ± 4.3%
same,inhibition at 1000 µM,PfCRT^Ecu1110 [2]; [5],97 ± 6.2%
same,inhibition at 2000 µM,PfCRT^Ecu1110 [2]; [5],101 ± 3.6%
